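Assay format: 96-well plates, 48-hour exposure. GI50: concentration for 50% inhibition of growth.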 Calls of active or inactive are those of the source. No stated cut-off is given here; in the data, active = GI50 up to about 1.1 µM and inactive = higher.
How the values were obtained:
Test in all cases: growth of human tumour cells (NCI), 48 h
A549 = test system: A549
EKVX = test system: EKVX
HCT-116 = test system: HCT-116
KM12 = test system: KM12
LOX IMVI = test system: LOX IMVI
Malme-3M = test system: Malme-3M
NCI-H226 = test system: NCI-H226
NCI-H23 = test system: NCI-H23
NCI-H460 = test system: NCI-H460
OVCAR-3 = test system: OVCAR-3
OVCAR-8 = test system: OVCAR-8
SF-295 = test system: SF-295
SF-539 = test system: SF-539
SK-MEL-5 = test system: SK-MEL-5
SK-OV-3 = test system: SK-OV-3
SNB-75 = test system: SNB-75
SR = test system: SR
U-251 = test system: U-251
UACC-257 = test system: UACC-257
UO-31 = test system: UO-31

Measured: GI50

Clc1ccc(COc2ccccc2/C=N/c2c(-c3ccco3)nc3ccccn23)c(Cl)c1
inactive: A549 > 100 µM | EKVX 17.4 µM | HCT-116 17.5 µM | KM12 36.8 µM | LOX IMVI 17.1 µM | Malme-3M 36.5 µM | NCI-H226 25.7 µM | NCI-H23 32.3 µM | NCI-H460 71 µM | OVCAR-3 37.8 µM | OVCAR-8 26.5 µM | SF-295 39.9 µM | SF-539 21.1 µM | SK-MEL-5 15.8 µM | SK-OV-3 > 100 µM | SNB-75 23.4 µM | SR 10.2 µM | U-251 33.7 µM | UACC-257 39.1 µM | UO-31 39.3 µM

CCOC(=O)/C=C(\C)c1ccc(C)cc1C
inactive: A549 > 100 µM | EKVX > 100 µM | HCT-116 > 100 µM | KM12 72.3 µM | LOX IMVI 16.3 µM | Malme-3M 26.1 µM | NCI-H226 > 100 µM | NCI-H23 45.4 µM | NCI-H460 > 100 µM | OVCAR-8 > 100 µM | SF-295 > 100 µM | SF-539 > 100 µM | SK-MEL-5 34.3 µM | SNB-75 75.3 µM | SR 4.46 µM | U-251 > 100 µM | UACC-257 > 100 µM | UO-31 > 100 µM

Cc1c2cc[n+](C)cc2c(COC2OC(CO)C(O)C2O)c2c3ccccc3n(C)c12 (centres undefined)
inactive: A549 74.3 µM | EKVX > 95.5 µM | HCT-116 > 100 µM | KM12 > 100 µM | LOX IMVI > 100 µM | Malme-3M 62.1 µM | NCI-H226 28.6 µM | NCI-H23 58.3 µM | NCI-H460 19.2 µM | OVCAR-3 > 100 µM | OVCAR-8 99.1 µM | SF-295 57 µM | SF-539 90.4 µM | SK-MEL-5 61.8 µM | SK-OV-3 > 88.7 µM | SNB-75 25 µM | U-251 48.6 µM | UACC-257 > 100 µM | UO-31 > 100 µM

CCc1cc2c(oc3cc4ccccc4cc32)c(=O)[nH]1
inactive: A549 > 10 µM | EKVX > 10 µM | HCT-116 > 10 µM | KM12 > 10 µM | LOX IMVI > 10 µM | Malme-3M > 10 µM | NCI-H226 > 10 µM | NCI-H460 > 10 µM | OVCAR-3 > 10 µM | OVCAR-8 > 10 µM | SF-295 > 10 µM | SF-539 > 10 µM | SNB-75 > 10 µM | SR > 10 µM | UACC-257 > 10 µM | UO-31 > 10 µM

O=C1CC2(CCC(O)(c3ccccc3)C(C(=O)c3ccccc3)C2)C(=O)c2ccccc2N1 (centres undefined)
inactive: A549 > 100 µM | EKVX > 100 µM | HCT-116 > 100 µM | LOX IMVI > 100 µM | Malme-3M > 100 µM | NCI-H226 > 100 µM | NCI-H23 > 100 µM | NCI-H460 > 100 µM | OVCAR-3 > 100 µM | OVCAR-8 > 100 µM | SF-295 > 100 µM | SF-539 > 100 µM | SK-MEL-5 > 100 µM | SK-OV-3 > 100 µM | SNB-75 > 100 µM | SR > 100 µM | U-251 > 100 µM | UACC-257 > 100 µM | UO-31 > 100 µM

C/C(=N\NC(=O)c1ccncc1)c1cccc(C(F)(F)F)c1
inactive: A549 > 10 µM | EKVX > 10 µM | KM12 > 10 µM | LOX IMVI > 10 µM | Malme-3M > 10 µM | NCI-H226 > 10 µM | NCI-H23 > 10 µM | NCI-H460 > 10 µM | OVCAR-8 > 10 µM | SF-539 > 10 µM | SK-MEL-5 > 10 µM | SK-OV-3 > 10 µM | SNB-75 > 10 µM | SR > 10 µM | U-251 > 10 µM | UACC-257 > 10 µM | UO-31 > 10 µM

c1ccc2c(c1)c1ccccc1n2Cn1c2ccccc2c2ccccc21
inactive: A549 > 100 µM | EKVX > 100 µM | KM12 > 100 µM | LOX IMVI > 100 µM | Malme-3M > 100 µM | NCI-H226 > 100 µM | NCI-H23 > 100 µM | NCI-H460 > 100 µM | OVCAR-3 > 100 µM | OVCAR-8 > 100 µM | SF-295 > 100 µM | SK-MEL-5 > 100 µM | SNB-75 30.8 µM | SR > 100 µM | U-251 > 100 µM | UACC-257 > 100 µM | UO-31 > 100 µM

OCc1cc2ccncc2c2c1[nH]c1ccccc12
inactive: A549 4.37 µM | EKVX 3.91 µM | HCT-116 3.74 µM | KM12 4.68 µM | LOX IMVI 3.44 µM | Malme-3M 6.95 µM | NCI-H226 2.13 µM | NCI-H23 7.26 µM | NCI-H460 2.76 µM | OVCAR-8 4.95 µM | SF-295 5.81 µM | SF-539 3.72 µM | SK-MEL-5 8 µM | SNB-75 4.51 µM | SR 2.83 µM | U-251 6.25 µM | UACC-257 14.8 µM | UO-31 7.53 µM

Cc1oc2nc(N(C)C)n3cnnc3c2c1C
inactive: A549 > 100 µM | EKVX > 100 µM | HCT-116 > 100 µM | KM12 > 100 µM | NCI-H226 > 100 µM | NCI-H23 > 100 µM | NCI-H460 > 100 µM | OVCAR-3 > 100 µM | OVCAR-8 > 100 µM | SF-295 > 100 µM | SF-539 > 100 µM | SK-MEL-5 > 100 µM | SK-OV-3 > 100 µM | SNB-75 50.6 µM | SR > 100 µM | U-251 > 100 µM | UACC-257 > 100 µM | UO-31 > 100 µM

N=C(N)c1csc([C@@H]2O[C@H](CO)[C@@H](O)[C@H]2O)n1
inactive: A549 > 100 µM | EKVX > 100 µM | HCT-116 > 100 µM | KM12 > 100 µM | LOX IMVI > 100 µM | Malme-3M > 100 µM | NCI-H226 89.5 µM | NCI-H23 > 100 µM | NCI-H460 > 100 µM | OVCAR-8 > 100 µM | SF-295 > 100 µM | SF-539 > 100 µM | SK-MEL-5 > 100 µM | SK-OV-3 > 100 µM | SNB-75 80.9 µM | SR > 100 µM | U-251 > 100 µM | UACC-257 > 100 µM | UO-31 > 100 µM

Cc1c(-c2cc3n(n2)C(c2cccs2)C(C#N)=C(c2ccccc2)N3)c(=O)n(-c2ccccc2)n1C (centres undefined)
inactive: A549 > 100 µM | EKVX > 100 µM | HCT-116 > 75.7 µM | KM12 94.2 µM | LOX IMVI 38.5 µM | Malme-3M > 100 µM | NCI-H226 > 100 µM | NCI-H23 > 89.5 µM | NCI-H460 76.9 µM | OVCAR-3 > 100 µM | OVCAR-8 > 100 µM | SF-295 > 74.3 µM | SF-539 > 100 µM | SK-MEL-5 28.8 µM | SK-OV-3 > 100 µM | SNB-75 > 55.1 µM | U-251 32.7 µM | UACC-257 49.2 µM | UO-31 77.4 µM

COc1ccc(C2c3cc4c(cc3OC(Nc3ccccc3)C2C)OCO4)cc1 (centres undefined)
inactive: A549 22.5 µM | EKVX 8.59 µM | HCT-116 12.7 µM | KM12 28.6 µM | LOX IMVI 27.7 µM | Malme-3M 63.5 µM | NCI-H226 41.1 µM | NCI-H23 64 µM | NCI-H460 7.98 µM | OVCAR-3 53.1 µM | SF-295 25.5 µM | SF-539 > 100 µM | SK-MEL-5 79.4 µM | SK-OV-3 > 100 µM | SNB-75 44.1 µM | SR 2.42 µM | U-251 56.8 µM | UACC-257 75.2 µM | UO-31 29.5 µM

CSC1=N/C(=C\c2ccccc2)C(=O)N1CN1CCCCC1
inactive: A549 87.7 µM | EKVX 51.1 µM | HCT-116 33.2 µM | KM12 65 µM | LOX IMVI 38.5 µM | Malme-3M 54.5 µM | NCI-H226 35.7 µM | NCI-H23 76.6 µM | OVCAR-3 > 100 µM | OVCAR-8 30.1 µM | SF-295 > 100 µM | SK-MEL-5 43.1 µM | SK-OV-3 > 100 µM | SNB-75 56.1 µM | SR 31.3 µM | U-251 72.6 µM | UO-31 39.5 µM

CN(C)CCNC(=O)c1cccc2c1Nc1ccccc1S2
inactive: A549 14.7 µM | EKVX 5.45 µM | HCT-116 12.2 µM | KM12 12.7 µM | LOX IMVI 12.2 µM | Malme-3M 14.8 µM | NCI-H226 11.5 µM | NCI-H23 14.6 µM | NCI-H460 11.2 µM | OVCAR-3 14.5 µM | OVCAR-8 15.8 µM | SF-295 14.5 µM | SF-539 15.2 µM | SK-MEL-5 13.2 µM | SK-OV-3 16.1 µM | SNB-75 6.81 µM | U-251 13.7 µM | UACC-257 13.7 µM | UO-31 10.1 µM

CCOC(=O)NC(=O)c1cn(C2CCCCC2)c(=O)n(C)c1=O
inactive: A549 > 100 µM | HCT-116 > 100 µM | KM12 > 100 µM | LOX IMVI > 100 µM | Malme-3M > 100 µM | NCI-H226 > 100 µM | NCI-H23 > 100 µM | NCI-H460 > 100 µM | OVCAR-3 > 100 µM | OVCAR-8 > 100 µM | SF-295 > 100 µM | SF-539 > 100 µM | SK-MEL-5 > 100 µM | SK-OV-3 > 100 µM | SNB-75 > 100 µM | SR > 100 µM | U-251 > 100 µM | UACC-257 > 100 µM | UO-31 > 100 µM
